The target in the test is T1, human 5-HT6 receptor (Homo sapiens, UniProt P50406).
T1 construct: host or cells: CHO-K1 cells, stably transfected; membranes prepared in house
Nature of the test: Human 5-HT6 Receptor Binding Assay ([3H]LSD, scintillation beads). As to conditions: membranes of CHO-K1 cells with recombinant human 5-HT6 receptor, 4 nM [3H]LSD. On the procedure: Human 5-HT6 Receptor Binding Assay
Membranes were prepared from CHO-K1 cells stably transfected with the human 5-HT6 receptor (Euroscreen; ES-316-C). The cells were grown in Gibco Advanced DMEM-F12 (Cat#12634010) containing 2% dialyzed FBS (Hyclone Cat#SH30079.03). The cells were harvested in phosphate buffered saline (PBS) containing 0.1 mM EDTA and pelleted by centrifugation (1000×g), the supernatant was discarded and the pellets were stored at −80° C. prior to membrane preparation. Membranes were prepared as previously described (J Bio Chem. 1992, 267 (14) 9844-51). Briefly, frozen cell pellet was resuspended in a lysis buffer containing 5 mM Tris-HCl (pH 7.5), 5 mM EDTA and 1 complete EDTA-free protease inhibitor tablet (Roche Applied Science, Indianapolis, Ind.) per 50 mL buffer, and homogenized with a tissue homogenizer. The cell lysate was then centrifuged at 40,000×g for 30 min at 4° C. to collect the membranes. The membrane pellets were washed in membrane buffer (50 mM Tris-HCl (pH 7.5), 0.6 mM EDTA, 5 mM MgCl2, 1 complete EDTA-free protease inhibitor tablet per 50 mL buffer) using a tissue homogenizer. The membranes were centrifuged at 40,000×g for 30 min at 4° C. and the pellets were resuspended in membrane buffer containing 250 mM sucrose, and protein concentration was determined using the Coomassie Plus kit (Pierce Biotechnology, Rockford, Ill.).
Membranes prepared from cells expressing recombinant human 5-HT6 receptor (h5-HT6) were resuspended in assay buffer containing 50 mM Tris HCl, (pH7.4), 4 mM CaCl2, 10 μg/mL saponin, and 0.1% (w/v) ascorbic acid. Membranes were preincubated using 1.75 μg membrane protein and 0.25 mg FlashBlue scintillation beads (PerkinElmer catalogue #FB001) per well at 4° C. for 30 min. […] Test compounds or assay controls for total and non-specific binding were diluted in DMSO as 100× solutions and serially diluted by half log concentrations on a Perkin Elmer JANUS Automated Workstation. Serotonin (10 μM final concentration) was used to determine non-specific binding in the assay. Plates were read using the Microbeta Trilux 1450 LSC and luminescence counter. Data were analyzed by nonlinear […] using the dose-response equation (variable slope) to calculate IC50 in XLfit4 (ID Business Solutions Inc.): y=(Bottom+((Top−Bottom)/(1+((IC50/x)^Hill slope))))
Ki value was then calculated according to the Cheng-Prusoff method using the equation below (Cheng and Prusoff, 1973): Ki, app=IC50/(1+([radioligand]/Kd))

Setting [1] is: Cheng-Prusoff, read-out: Human 5-HT6 Ki app.

Like-named read-outs stand apart in the source and are kept apart here. Some results are limits rather than exact numbers.

T1 sequence (P50406 whole entry): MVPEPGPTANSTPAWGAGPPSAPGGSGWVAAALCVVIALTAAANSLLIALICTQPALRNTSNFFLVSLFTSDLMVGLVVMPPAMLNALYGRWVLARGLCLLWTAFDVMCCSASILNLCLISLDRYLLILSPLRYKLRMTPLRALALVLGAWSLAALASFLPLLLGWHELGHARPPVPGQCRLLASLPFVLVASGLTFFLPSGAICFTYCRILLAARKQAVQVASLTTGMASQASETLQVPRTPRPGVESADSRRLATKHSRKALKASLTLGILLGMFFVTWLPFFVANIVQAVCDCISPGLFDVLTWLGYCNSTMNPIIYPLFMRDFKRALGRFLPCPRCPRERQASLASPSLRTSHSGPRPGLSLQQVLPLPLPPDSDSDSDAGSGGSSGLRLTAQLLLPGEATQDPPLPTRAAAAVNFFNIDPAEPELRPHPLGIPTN

Regarding `O=S(=O)(c1cncc(C(F)(F)F)c1)c1ccc2c(c1)OCC1NCCC21` (single isomer, unassigned) [Example 52, 7-{[5-(trifluoromethyl)pyridin-3-yl]sulfonyl}-1,2,3,3a,4,9b-hexahydrochromeno[3,4-b]pyrrole], the Ki under setting [1] lay within 0.5 to 1 µM.
Regarding `O=S(=O)(c1ccccc1)c1ccc2c(c1)C1CCNC1CO2` (single isomer, unassigned) [Example 53, 8-(phenylsulfonyl)-1,2,3,3a,4,9b-hexahydrochromeno[3,4-b]pyrrole], the Ki under setting [1] was < 0.5 µM.
Still for that read-out and setting: the value for `O=S(=O)(c1ccccc1)c1ccc2c(c1)C1CCNC1CO2` (single isomer, unassigned) [Example 54, 8-(phenylsulfonyl)-1,2,3,3a,4,9b-hexahydrochromeno[3,4-b]pyrrole] was < 0.5 µM; that for `O=S(=O)(c1ccccc1)c1ccc2c(c1)OCC1NCCC21` (single isomer, unassigned) [Example 55, 7-(phenylsulfonyl)-1,2,3,3a,4,9b-hexahydrochromeno[3,4-b]pyrrole] was < 0.5 µM.
Turning to `CC(C)N1CCC2c3ccc(S(=O)(=O)c4ccccc4)cc3OCC21` (single isomer, unassigned) [Example 57, 7-(phenylsulfonyl)-3-(propan-2-yl)-1,2,3,3a,4,9b-hexahydrochromeno[3,4-b]pyrrole], the Ki (actual data, read-out: Human 5-HT6 Ki) came out at 0.504 µM and the Ki under setting [1] was in the range of 0.5 to 1 µM.
As to `CC(C)N1CCC2c3ccc(S(=O)(=O)c4ccccc4)cc3OCC21` (single isomer, unassigned) [Example 58, 7-(phenylsulfonyl)-3-(propan-2-yl)-1,2,3,3a,4,9b-hexahydrochromeno[3,4-b]pyrrole], the Ki under setting [1] was > 1 µM.
On the same count and under the same terms, in the case of `O=S(=O)(c1ccccc1)c1ccc2c(c1)OCC1C2CCN1C1CCC1` (single isomer, unassigned) [Example 59, 3-cyclobutyl-7-(phenylsulfonyl)-1,2,3,3a,4,9b-hexahydrochromeno[3,4-b]pyrrole] it was 0.5 to 1 µM; in that of `O=S(=O)(c1ccccc1)c1ccc2c(c1)OCC1C2CCN1C1CCC1` (single isomer, unassigned) [Example 60, 3-cyclobutyl-7-(phenylsulfonyl)-1,2,3,3a,4,9b-hexahydrochromeno[3,4-b]pyrrole], > 1 µM.
The same measure, in the same setting: the value for `O=S(=O)(c1ccccc1)c1ccc2c(c1)OCC1C2CCN1C1CCCC1` (single isomer, unassigned) [Example 61, 3-cyclopentyl-7-(phenylsulfonyl)-1,2,3,3a,4,9b-hexahydrochromeno[3,4-b]pyrrole] was < 0.5 µM.
The same measure, in the same setting: the value for `O=S(=O)(c1ccccc1)c1ccc2c(c1)OCC1C2CCN1C1CCCC1` (single isomer, unassigned) [Example 62, 3-cyclopentyl-7-(phenylsulfonyl)-1,2,3,3a,4,9b-hexahydrochromeno[3,4-b]pyrrole] was > 1 µM.
In the case of `O=S(=O)(c1ccccc1)c1ccc2c(c1)OCC1C2CCN1C1CCCCC1` (single isomer, unassigned) [Example 63, 3-cyclohexyl-7-(phenylsulfonyl)-1,2,3,3a,4,9b-hexahydrochromeno[3,4-b]pyrrole], under setting [1], the Ki is < 0.5 µM.
Same read-out and setting: the value for `O=S(=O)(c1ccccc1)c1ccc2c(c1)OCC1C2CCN1C1CCCCC1` (single isomer, unassigned) [Example 64, 3-cyclohexyl-7-(phenylsulfonyl)-1,2,3,3a,4,9b-hexahydrochromeno[3,4-b]pyrrole] was > 1 µM; that for `O=S(=O)(c1ccccc1)c1ccc2c(c1)OCC1C2CCN1C1CCOC1` (single isomer, unassigned) [Example 65, 7-(phenylsulfonyl)-3-(tetrahydrofuran-3-yl)-1,2,3,3a,4,9b-hexahydrochromeno[3,4-b]pyrrole] was 0.5 to 1 µM.
On the same count and under the same terms, in the case of `O=S(=O)(c1ccccc1)c1ccc2c(c1)OCC1C2CCN1C1CCOC1` (single isomer, unassigned) [Example 66, 7-(phenylsulfonyl)-3-(tetrahydrofuran-3-yl)-1,2,3,3a,4,9b-hexahydrochromeno[3,4-b]pyrrole] it was > 1 µM; in that of `O=S(=O)(c1ccccc1)c1ccc2c(c1)OCC1C2CCN1CC(F)F` (single isomer, unassigned) [Example 67, 3-(2,2-difluoroethyl)-7-(phenylsulfonyl)-1,2,3,3a,4,9b-hexahydrochromeno[3,4-b]pyrrole], < 0.5 µM; in that of `O=S(=O)(c1ccccc1)c1ccc2c(c1)OCC1C2CCN1C1CCOCC1` (single isomer, unassigned) [Example 68, 7-(phenylsulfonyl)-3-(tetrahydro-2H-pyran-4-yl)-1,2,3,3a,4,9b-hexahydrochromeno[3,4-b]pyrrole], < 0.5 µM.
For the compound `O=S(=O)(c1ccccc1)c1ccc2c(c1)OCC1C2CCN1C1CCOCC1` (single isomer, unassigned) [Example 69, 7-(phenylsulfonyl)-3-(tetrahydro-2H-pyran-4-yl)-1,2,3,3a,4,9b-hexahydrochromeno[3,4-b]pyrrole], the Ki under setting [1] was > 1 µM.
On the same count and under the same terms, the value for `O=S(=O)(c1ccccc1)c1ccc2c(c1)OCC1C2CCN1CC1CCCC1` (single isomer, unassigned) [Example 70, 3-(cyclopentylmethyl)-7-(phenylsulfonyl)-1,2,3,3a,4,9b-hexahydrochromeno[3,4-b]pyrrole] was < 0.5 µM; that for `O=S(=O)(c1ccccc1)c1ccc2c(c1)OCC1C2CCN1CC1CCCC1` (single isomer, unassigned) [Example 71, 3-(cyclopentylmethyl)-7-(phenylsulfonyl)-1,2,3,3a,4,9b-hexahydrochromeno[3,4-b]pyrrole] was > 1 µM; that for `O=S(=O)(c1ccccc1)c1ccc2c(c1)OCC1C2CCN1CC1CC1` (single isomer, unassigned) [Example 72, 3-(cyclopropylmethyl)-7-(phenylsulfonyl)-1,2,3,3a,4,9b-hexahydrochromeno[3,4-b]pyrrole] was > 1 µM.
Still for that read-out and setting: in the case of `O=S(=O)(c1cncc(Br)c1)c1ccc2c(c1)OCC1C2CCN1C1CCC1` (single isomer, unassigned) [Example 73, 7-[(5-bromopyridin-3-yl)sulfonyl]-3-cyclobutyl-1,2,3,3a,4,9b-hexahydrochromeno[3,4-b]pyrrole] it was 0.5 to 1 µM.
The same measure, in the same setting: in the case of `COc1cncc(S(=O)(=O)c2ccc3c(c2)OCC2C3CCN2C2CCC2)c1` (single isomer, unassigned) [Example 74, 3-cyclobutyl-7-[(5-methoxypyridin-3-yl)sulfonyl]-1,2,3,3a,4,9b-hexahydrochromeno[3,4-b]pyrrole] it was > 1 µM; in that of `O=S(=O)(c1cncc(F)c1)c1ccc2c(c1)OCC1C2CCN1C1CCC1` (single isomer, unassigned) [Example 75, 3-cyclobutyl-7-[(5-fluoropyridin-3-yl)sulfonyl]-1,2,3,3a,4,9b-hexahydrochromeno[3,4-b]pyrrole], > 1 µM.
For `O=S(=O)(c1cncc(Cl)c1)c1ccc2c(c1)OCC1C2CCN1C1CCC1` (single isomer, unassigned) [Example 76, 7-[(5-chloropyridin-3-yl)sulfonyl]-3-cyclobutyl-1,2,3,3a,4,9b-hexahydrochromeno[3,4-b]pyrrole], the Ki under setting [1] is < 0.5 µM.
On the same count and under the same terms, the value for `O=S(=O)(c1ccccc1)c1ccc2c(c1)OCC1C2CCN1CC(F)F` (single isomer, unassigned) [Example 77, 3-(2,2-difluoroethyl)-7-(phenylsulfonyl)-1,2,3,3a,4,9b-hexahydrochromeno[3,4-b]pyrrole] was > 1 µM.

The values above are taken from US9115147B2, “Tricyclic derivatives and their pharmaceutical use and compositions” (Cephalon, Inc., priority 2009, dated 2015).
